Where “and” joins values, the source holds several entries; their conditions need not be identical. Equal entries are not always repeated.
Experiments:
rabbits [1] = details: in words; Cook et al., Human Reproduction 1994; cited from earlier work
Human T-47D breast cells [2] = experiment: T-47D cell proliferation, agonist format; assay type: cell-based; details: T47D, 0.01 to 10 nM, maximum at any dose, read-out: Cell Proliferation Agonist maximum % Stim.
Method: (§1) Human T-47D breast cells grown in nutrient media were incubated with the standard progestin R5020 alone or with R5020 plus test compound and then assessed by standard procedures for proliferation using incorporation of [^3 H]-thymidine as the measurement. […] The maximum % inhibition (a measure of the efficacy of the compounds) is also given. In the agonist format of this assay the compounds were tested at concentrations ranging from 0.01 to 10 nM and the maximum % stimulation at any dose is listed in Table 2. […] However, the presence of a very polar hydroxyl group in the 17α-position greatly diminishes antiprogestational activity and this holds even when the OH is separated from the 17-carbon atom by a methylene group.

progestin receptor (hPR) = experiment: progestin receptor binding; details: cytosol from human T-47D breast cells; [3H]-R5020; read-out: Receptor Binding Affinity hPR IC50
From the text: However, the receptors were of human origin and a different radioligand was used. Thus, for progestin receptor binding the receptor was obtained in cytosol from human T-47D breast cells and [^3 H]-R5020 was used as the radioligand. Data are expressed as IC50 values, i.e., the concentration of compound that inhibits the radioligand binding by 50%.

immature male rats = experiment: antiglucocorticoid activity in vivo (thymus weight); set-up: species or system rat
Method: The ability of the compounds to block the effects of dexamethasone (6 μg per day for 7 days) on thymus weight of immature male rats was assessed.

immature female rabbits = experiment: anti-estrogenic activity in vivo (uterine weight); set-up: species or system rabbit
Method: Steril. 52: 1055-1060 (1989). […] The weight of uteri from untreated immature rabbits was increased from 246±87 (S.E.) mg with no estradiol to 1402±104 mg with estradiol alone. Concurrent treatment of rabbits with estradiol and 10 mg/day of 17α-acetoxy-11β-(4-(N-piperidino)phenyl)-19-norpregna-4,9-diene-3,20-dione reduced the uterine weights to 998±98 mg. Likewise 17α-acetoxy-11β-(4-N-pyrrolidino)phenyl)-19-norpregna-4,9-diene-3,20-dione at 10 mg/day reduced the uterine weight to 919±115 mg, and 17α-acetoxy-11β-(1-methyl-5-indolyl)-19-norpregna-4,9-diene-3,20-dione reduced uterine weight to 956±115 mg at the same dose.

Human T-47D breast cells [3] = experiment: T-47D cell proliferation, antagonist format (inhibition of 0.15 nM R5020-mediated proliferation); assay type: cell-based; details: T47D; for EC50: inhibition of 0.15 nM R5020-mediated proliferation, N.D. not detected; for Emax: maximum % inhibition, 0.15 nM R5020, read-out: Cell Proliferation Antagonist maximum % Inhib.
Method: as §1

rabbits [4] = experiment: McGinty test (agonist, test compound alone); assay type: in vivo, rabbit
Method: (§2) Progestational activity and antiprogestational activity were determined in rabbits by means of the McGinty test (test compound alone, procedure of McGinty et al., Endocrinology, 24:829-832 (1939)) or anti-McGinty test (test compound plus progesterone, procedure of Tamara et al., Jpn. J. Fertil. Steril. 24:48-81 (1979)). Results were scored according to McPhail (McPhail, J. Physiol., 83:146 (1934)).

[5] = test system: Ishikawa human endometrial adenocarcinoma cell line; experiment: anti-estrogenic activity in Ishikawa cells (block of estrogen-stimulated alkaline phosphates activity); assay type: cell-based; details: for anti-estrogenic activity in the Ishikawa cell assay: in words, concentration not given
[6] = test system: immature New Zealand white rabbits; experiment: anti-Clauberg assay for oral antiprogestational activity; assay type: in vivo, rabbit; details: for ED50, anti-Clauberg assay: 5 days; for ED50, anti-Clauberg assay / effectiveness in inhibiting the endometrial response: with progesterone SC
Method: In this assay immature New Zealand white rabbits were primed with estrogen by treatment with estradiol for six days. They were then given progesterone subcutaneously (SC) and the test compound (orally) for 5 days. On the day following the treatment, the uteri were excised and examined histologically. The endometrial response was graded by the method of McPhail and the % inhibition was determined at each dose. Statistical analysis provides for an ED50 value.

rabbits [7] = experiment: anti-McGinty test (antagonist, test compound plus progesterone); assay type: in vivo, rabbit
Method: as §2

androgen receptor = target: T1, androgen receptor (Rattus norvegicus, UniProt P15207); experiment: androgen receptor binding
T1 construct: using the cytosolic receptor from rat central prostate; from tissue
T1 sequence (P15207 1-902): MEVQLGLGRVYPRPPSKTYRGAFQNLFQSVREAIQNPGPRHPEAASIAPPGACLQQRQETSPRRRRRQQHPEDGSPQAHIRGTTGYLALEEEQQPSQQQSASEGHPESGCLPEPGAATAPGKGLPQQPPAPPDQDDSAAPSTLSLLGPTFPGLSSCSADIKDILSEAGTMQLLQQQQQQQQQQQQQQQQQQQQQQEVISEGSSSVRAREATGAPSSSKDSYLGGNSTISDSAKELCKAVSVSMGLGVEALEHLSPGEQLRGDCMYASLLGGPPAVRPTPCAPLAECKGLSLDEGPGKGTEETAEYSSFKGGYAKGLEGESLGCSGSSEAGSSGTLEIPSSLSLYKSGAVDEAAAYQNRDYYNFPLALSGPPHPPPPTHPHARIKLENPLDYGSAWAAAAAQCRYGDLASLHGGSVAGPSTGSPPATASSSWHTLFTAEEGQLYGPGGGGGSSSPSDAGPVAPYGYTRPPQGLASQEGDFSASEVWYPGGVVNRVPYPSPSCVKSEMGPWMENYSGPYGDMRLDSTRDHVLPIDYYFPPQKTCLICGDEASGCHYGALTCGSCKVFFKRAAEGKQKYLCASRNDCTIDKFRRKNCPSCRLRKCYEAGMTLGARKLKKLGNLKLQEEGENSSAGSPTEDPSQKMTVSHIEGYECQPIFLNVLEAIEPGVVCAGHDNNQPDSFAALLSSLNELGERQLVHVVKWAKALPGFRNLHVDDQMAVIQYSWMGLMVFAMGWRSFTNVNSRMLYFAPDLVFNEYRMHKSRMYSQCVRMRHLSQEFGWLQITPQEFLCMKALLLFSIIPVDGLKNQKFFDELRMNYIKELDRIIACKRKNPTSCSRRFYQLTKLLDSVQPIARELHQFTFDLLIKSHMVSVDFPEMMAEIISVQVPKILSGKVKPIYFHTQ

[8] = test compound 10 mg/day oral + 5 μg estradiol per day

| IC50 (progestin receptor (hPR)) [nM] | Compound | Emax (Human T-47D breast cells [2]) [%] | EC50 (Human T-47D breast cells [3]) [nM] | Emax (Human T-47D breast cells [3]) [%] | McPhail Index, McGinty Assay (Agonist) (rabbits [4]; dose 0.3 micrograms) | McPhail Index, McGinty Assay (Agonist) (rabbits [4]; dose 3 micrograms) | McPhail Index, McGinty Assay (Agonist) (rabbits [4]; dose 30 micrograms) | also measured |
| --- | --- | --- | --- | --- | --- | --- | --- | --- |
|  | CC(=O)O[C@]1(C(C)=O)CC[C@H]2[C@@H]3CCC4=CC(=O)CCC4=C3[C@@H](c3ccc(N(C)C)cc3)C[C@@]21C [17α-acetoxy-11β-(4-(N,N-dimethylamino)phenyl)-19-norpregna-4,9-diene-3,20-dione] |  |  |  |  |  |  | antiprogestational activity (rabbits [1]): potent antiprogestational activity |
| 43.6 | CC(=O)[C@@]1(CO)CC[C@H]2[C@@H]3CCC4=CC(=O)CCC4=C3[C@@H](c3ccc(N(C)C)cc3)C[C@@]21C [I 4-Me2 N H O H --CH2 --OH H, 11β-(4-(N,N-dimethylamino)phenyl)-17α-hydroxymethyl-19-norpregna-4,9-diene-3,20-dione] | 11 |  | 23 | 0 +/- 0 | 0 +/- 0 | 0 +/- 0 | McPhail Index, McGinty Assay (Antagonist) (rabbits [7]; rabbit, in vivo): 2.9 +/- 0.5 and 2.8 +/- 0.2 and 2.7 +/- 0.2 |
| 3.2 | COC[C@]1(C(C)=O)CC[C@H]2[C@@H]3CCC4=CC(=O)CCC4=C3[C@@H](c3ccc(N(C)C)cc3)C[C@@]21C [I 4-Me2 N H O H --CH2 OCH3 H, 11β-(4-(N,N-dimethylamino)phenyl)-17α-methoxymethyl-19-norpregna-4,9-diene-3,20-dione] | 12 | 0.3 | 106 | 1.3 +/- 0.5 | 1.8 +/- 0.6 | 1.3 +/- 0.8 | McPhail Index, McGinty Assay (Antagonist) (rabbits [7]; rabbit, in vivo): 3.2 +/- 0.1 and 1.7 +/- 0.8 and 1.7 +/- 0.3 |
| 26 | CC(=O)[C@@]1(O)CC[C@H]2[C@@H]3CCC4=CC(=O)CCC4=C3[C@@H](c3ccc(N(C)C)cc3)C[C@@]21C [I 4-Me2 N H O H --OH H] | 4 |  | 29 | 0 +/- 0 | 0 +/- 0 | 0 +/- 0 | McPhail Index, McGinty Assay (Antagonist) (rabbits [7]; dose 0.3 micrograms, plus progesterone): 2.8 +/- 0; McPhail Index, McGinty Assay (Antagonist) (rabbits [7]; dose 3 micrograms, plus progesterone): 2.4 +/- 0.4; McPhail Index, McGinty Assay (Antagonist) (rabbits [7]; dose 30 micrograms, plus progesterone): 2.1 +/- 0.4 |
| 10.6 | CC(=O)OC[C@]1(C(C)=O)CC[C@H]2[C@@H]3CCC4=CC(=O)CCC4=C3[C@@H](c3ccc(N(C)C)cc3)C[C@@]21C [I 4-Me2 N H O H CH2 --O--CO--CH3 H] | 20 | 8.9 | 92 | 0 +/- 0 | 0.6 +/- 0.2 | 1.0 +/- 0.1 | McPhail Index, McGinty Assay (Antagonist) (rabbits [7]; rabbit, in vivo): 3.4 +/- 0.1 and 2.6 +/- 0.2 and 2.0 +/- 0.2 |
| 11.9 | CN(C)c1ccc([C@H]2C[C@@]3(C)[C@@H](CC[C@@]34OC(=O)CCC4=O)[C@@H]3CCC4=CC(=O)CCC4=C32)cc1 [II 4-Me2 N H O H -- H H H, 11β-[4-(N,N-dimethylamino)phenyl]-3,20-dioxo-17α-hydroxy-19,21-dinorchola-4,9-dien-24-oic acid δ-lactone] |  |  |  | 0 +/- 0 | 0 +/- 0 | 0 | antiprogestational activity, anti-McGinty test (rabbits [7]; in words): potent antiprogestational activity; progestational activity, McGinty test (rabbits [4]; in words): no evidence of progestational activity; IC50 (androgen receptor; cytosolic receptor from rat central prostate, [3H]-5α-dihydrotestosterone): 90 nM; androgen receptor affinity (androgen receptor; in words): very low affinity |
|  | C[C@@H]1C[C@H]2[C@@H]3CCC4=CC(=O)C=C[C@]4(C)[C@@]3(F)[C@@H](O)C[C@]2(C)[C@@]1(O)C(=O)CO [dexamethasone, reference compound] |  |  |  |  |  |  | thymus weight (immature male rats; 6 μg dexamethasone alone per day, 7 days): 65 ± 8 mg |
|  | C[C@]12CC[C@@H]3c4ccc(O)cc4CC[C@H]3[C@@H]1CC[C@@H]2O [estradiol, reference compound] |  |  |  |  |  |  | uterine weight (immature female rabbits; estradiol alone, 5 μg per day): 1402 ± 104 mg |
|  | CC#C[C@]1(O)CC[C@H]2[C@@H]3CCC4=CC(=O)CCC4=C3[C@@H](c3ccc(N(C)C)cc3)C[C@@]21C [mifepristone, reference compound] |  |  |  |  |  |  | ED50, anti-Clauberg assay [6]: 4.14 mg/day; effectiveness in inhibiting the endometrial response [6]: 67% |

| Compound | IC50 (progestin receptor (hPR)) [nM] | Emax (Human T-47D breast cells [2]) [%] | EC50 (Human T-47D breast cells [3]) [nM] | Emax (Human T-47D breast cells [3]) [%] | McPhail Index, McGinty Assay (Agonist) (rabbits [4]; dose 0.3 micrograms) | McPhail Index, McGinty Assay (Agonist) (rabbits [4]; dose 3 micrograms) | McPhail Index, McGinty Assay (Agonist) (rabbits [4]; dose 30 micrograms) | also measured |
| --- | --- | --- | --- | --- | --- | --- | --- | --- |
| CC(=O)O[C@]1(C(C)=O)CC[C@H]2[C@@H]3CCC4=CC(=O)CCC4=C3[C@@H](c3ccc4c(ccn4C)c3)C[C@@]21C [I 1-methylindol-5-yl O H --O--CO--CH3 H, 17α-Acetoxy-11β-(1-methylindol-5-yl)-19-norpregna-4,9-diene-3,20-dione] | 2.4 | 17 | 0.7 | 110 | 0 +/- 0 | 0 +/- 0 | 0 +/- 0 | thymus weight (immature male rats; 6 μg dexamethasone + 1,000 μg test compound per day, 7 days): 105 ± 8 mg; antiglucocorticoid activity (immature male rats; 1000 μg per day, in words): little or no antiglucocorticoid activity in vivo; glucocorticoid activity (immature male rats; compound given alone, in words): Neither did it show significantglucocorticoid activity; thymus weight (immature male rats; test compound given alone): 270 ± 13 mg; uterine weight (immature female rabbits; [8]): 956 ± 115 mg; anti-estrogenic activity in the Ishikawa cell assay [5]: inactive |
| CC(=O)O[C@]1(C(C)=O)CC[C@H]2[C@@H]3CCC4=CC(=O)CCC4=C3[C@@H](c3ccc(N4CCCCC4)cc3)C[C@@]21C [I 4-(N-piperidino) H O H --O--CO--CH3 H, 17α-Acetoxy-11β-[4-(N-piperidino)phenyl]-19-norpregna-4,9-diene-3,20-dione] | 1.2 | 0 | 0.2 | 117 | 0.1 +/- 0.1 | 0 +/- 0 | 0.2 +/- 0.1 | uterine weight (immature female rabbits; [8]): 998 ± 98 mg; ED50, anti-Clauberg assay [6]: 0.9 mg/day; potency relative to mifepristone ([6]; more potent than mifepristone): about 5 fold; effectiveness in inhibiting the endometrial response [6]: 100%; anti-estrogenic activity in the Ishikawa assay ([5]; concentrations up to 10^-6 M): inactive |
| CC(=O)O[C@]1(C(C)=O)CC[C@H]2[C@@H]3CCC4=CC(=O)CCC4=C3[C@@H](c3ccc(N4CCCC4)cc3)C[C@@]21C [I 4-(N-pyrrolidino) H O H --O--CO--CH3 H, 17α-Acetoxy-11β-[4-(N-pyrrolidino)phenyl]-19-norpregna-4,9-diene-3-20-dione] | 0.8 | 1 | 0.4 | 108 | 0 +/- 0 | 0 +/- 0 | 0 +/- 0 | uterine weight (immature female rabbits; [8]): 919 ± 115 mg; anti-estrogenic activity in the Ishikawa cell assay [5]: inactive |

Source: US6020328A, “20-keto-11β-arylsteroids and their derivatives having agonist or antagonist hormonal properties” (Research Triangle Institute, priority 1998, dated 2000)
